Tests used:
THP-1 cells = assay: Generation of Factor Xa by monocytes; format: cell-based; details: peptides 0.5 mM
Protocol: Factor Xa generation was determined by a modification of the method of Miletich et al. (1978), J. Biol. Chem. 253: 6908-6916. THP-1 cells (ATCC; 3×10^7 /ml) resuspended in RPMI 1640 (Bio Whittaker, Walkersville, Md.) were incubated with 100 μM ADP (Sigma), 2.5 mM CaCl2, 1 or 5 μg/ml Factor X (Hematologic Technologies Inc.) and 0.5 mM peptides at room temperature. After 20 minutes, 100 μl of the reaction mixture was transferred to 37° C. and supplemented with 100 μl of bovine factor VII- and Factor X-deficient plasma (Sigma). Coagulation was initiated by adding 100 μl of 25 mM CaCl2 and the clotting time was determined. Factor Xa procoagulant activity (ng/ml) was calculated by means of a standard curve constructed by serial concentrations of Factor Xa (Hematologic Technologies Inc.) from 50 to 250 ng/ml.

[1] = tested on: rabbits challenged intracisternally with pneumococcus strain R6; assay: Rabbit model for meningitis, intravenous FHA or peptides; format: in vivo; details: for Lactate / Protein: CSF at 6 hours
Protocol: The rabbit model was performed according to an established protocol. Specific pathogen free, New Zealand white rabbits (2 kg; Hare Marland, Nutley, N.J.) were anesthetized with valium (2.5 mg/kg, subcutaneously, Hoffman-LaRoche, Nutley, N.J.), ketamine (35 mg/kg, intramuscularly, Aveco, Fort Dodge, Iowa) and xylazine (5 mg/kg, intramuscularly, Miles Laboratories, Shawnee, Kans.) and a helmet of dental acrylic was affixed to the calvarium. Twenty four hours later, the rabbits were anesthetized with ethyl carbamate (1.75 g/kg; Aldrich Chemical Co., Milwaukee, Wis.) and pentobarbital (15 mg/kg; Abbott Laboratories, Abbott Park, Ill.) and placed in a stereotaxic frame. A spinal needle was introduced into the cisterna magna and 300 μl of CSF was withdrawn. The animals were challenged intracisternally with 10^8 heat killed, unencapsulated pneumococcus strain R6 introduced in 200 μl of saline (time 0). One hour later, animals were treated with peptides dissolved in 1 ml of saline by intravenous injection into the right marginal ear vein. The concentration of FHA was 0.1 μM and that of the FHA Ia, Factor X II, and scrambled FHA II peptides was 10 μM. For the acetyl-FHA II, acetyl/amide-FHA II, dimer of FHA II and trimer of FHA II peptides, the concentration was 10^-3 μM. The concentration of FHA II is given in the results section. Samples of CSF were withdrawn at hourly intervals after pneumococcal inoculation and leukocyte density was measured using a cell counter (Coulter Electronics Inc., Hialeah, Fla.). CSF samples were centrifuged at 10,000×g for 5 minutes and the supernatant was stored at -70° C. until assayed for protein concentration using the bicinchoninic acid method (BCA Kit, Pierce Chemical Co., Rockford Ill.) and for lactate concentration (Lactate Detection Kit, Sigma, St. Louis, Mo.). Statistically significant differences between treatments were determined by a one way analysis of variance test.
The anti-inflammatory effects of the administered peptides were assessed in the rabbit model for meningitis by the procedures described in Example 10. The animals received 1 ml of 1 uM peptide intravenously. In a slight departure from the protocol described in Example 10, samples of blood were drawn from the left marginal ear vein 30 minutes after the administration of the peptides to determine peripheral leukocyte concentrations.

[2] = tested on: rats inoculated intracisternally with Haemophilus influenzae type b lipooligosaccharide; assay: Rat meningitis model (H. influenzae LOS); format: in vivo; details: for Leukocytosis: Experiment #3, 600 nmol i.v., CSF 4 hours after LOS
Protocol: The experiments were performed according to established protocols (Wispelway et al., 1988, J. Clin. Invest., 82: 1339-1346). Purified Haemophilus influenzae type b strain DL42 lipooligosaccharide (LOS) was prepared for inoculation by sonication for 30 minutes, dilution to the desired concentration (20 ng/50 μl) in normal saline or PBS, and sonication for an additional 15 to 30 minutes just prior to use.
Briefly, anesthetized female Wistar rats were placed under a micromanipulator and inoculated intracisternally with a 25 gauge needle. After removal of 50 μl of CSF (without visible blood contamination), rats were inoculated intracisternally with 50 μl (20 ng) of LOS using a 1 ml syringe with a 25 gauge needle. Ten to fifteen minutes after inoculation with LOS, the rats were treated by intravenous administration of the test substance: a solution of an FHA peptide in PBS, a solution of a control peptide in PBS, or an equal volume of PBS alone.
Three hours after LOS inoculation, 5 μCi of ^125 I-radiolabelled albumin in 50 μl normal saline was administered intravenously. One hour later, CSF was collected via intracisternal puncture and blood samples were collected via intracardiac puncture. CSF leukocytosis was determined by manually counting white blood cells using a hemacytometer, and blood-brain barrier permeability was determined as the percent of radioactivity in whole blood that was present in the CSF. Blood samples were obtained immediately prior to inoculation, immediately prior to treatment, and at 4 hours post-inoculation for determination of peripheral white blood cell concentrations.

[3] = 50% rabbit plasma at 37° C.
Protocol: To determine the stability of the FHA II peptide, the unmodified or the acetylated-amidated peptide were incubated in 50% rabbit plasma at 37° C.

Substance | Clotting time (THP-1 cells) | Factor Xa (THP-1 cells; from standard curve) | leukocytes/μl CSF ([1]; 6 hours post-pneumococcal challenge, 10 nmoles i.v.) | Lactate ([1]; FHA 0.1 μM, peptides 10 μM) | Protein ([1]; FHA 0.1 μM, peptides 10 μM) | BBB permeability ([2]; Experiment #3, 600 nmol) | Leukocytosis [2] | Leukocytosis ([2]; listed as ac/am FHA II) | neutropenia ([2]; peripheral white blood cells) | Inhibition of blood-brain barrier permeability ([2]; rat, in vivo) | concentration over time in plasma [3] | Total protein in CSF ([1]; 6 hours after intracisternal inoculation of pneumococci) | mean leukocyte concentration/μl CSF ([1]; 7 hours after challenge, 10^-3 μM i.v.) | mean leukocyte concentration/μl CSF ([1]; 7 hours after challenge, FHA 0.1 μM (25 μg per 2 kg), peptides 10 μM, i.v.) | mean leukocyte density/μl CSF ([1]; 7 hours after challenge, FHA 0.1 μM (25 μg/animal), peptides 1 ml of 1 uM i.v.) | Total protein in CSF ([1]; 7 hours after intracisternal inoculation of pneumococci) | reduction of CSF leukocytosis ([1]; 7 hours, FHA 0.1 μM, peptides 10 μM) | anti-inflammatory activity at reduced concentration ([1]; concentrations reduced from 10 to 0.1 μM, FIG. 21) | inflammation, numbers of leukocytes in the cerebrospinal fluid ([1]; intravenous, FIG. 5)
Ac-ETKEVDG-NH2 [Acetyl/Amide-FHA II] | 40.0 ± 3.0 s | 28.5 ng/mL | 3011±684 cells/μl | 24.3 ± 3.2 mg/100 ml | 1.2 ± 0.6 mg/ml CSF | 6.00 ± 5.14% | approximately 10,000 cells/ml | 10,500 ± 8523 cells/ml | No neutropenia was observed | not observed | remained unchanged over 48 hours | – | – | – | – | – | – | – | –
Filamentous hemagglutinin [native FHA] | – | – | – | 25.0 ± 5.3 mg/100 ml | 1.3 ± 0.3 mg/ml CSF | – | – | – | – | – | – | 1.70 ± 0.33 mg/mL | ineffective | 2096±450 /μl CSF | 2096±450 cells/μl CSF | 1.86 ± 0.76 mg/mL | > 60% | more potent anti-inflammatory activity than the corresponding Factor X peptide II | decreases inflammation

Reference: patent US5932217A, “Peptides which inhibit adhesion between leukocytes and endothelial cells” (priority 1994, dated 1999)
